Values quoted from earlier work, collected in US20200046722A1, “METHOD AND COMPOSITION FOR TREATING EATING DISORDERS” (India Globalization Capital, Inc., priority 2017, published 2020).

What was measured:
[1] = test system: patients with cancer related anorexia-cachexia syndrome; conditions: at the dosage administered
cats = conditions: versus placebo

For `CCCCCc1cc(O)c2c(c1)OC(C)(C)[C@@H]1CCC(C)=C[C@@H]21` [Delta-9-tetrahydrocannabinol (THC), Delta-9-tetrahydrocannabinol], the appetite versus placebo [1] is listed as “no difference” and the “patient's quality of life versus placebo” value [1] is listed as “no difference”.

In the case of `CN1CCN2c3ncccc3Cc3ccccc3C2C1` (stereo not drawn) [mirtazapine, 1,2,3,4,10,14b-hexahydro-2-methylpyrazino[2,1-α]pyrido[2,3-c]benzazepine], the “appetite in comparison with placebo” value (cats) is listed as “greater appetite” and the “food ingested in comparison with placebo” value (cats) is listed as “ingested significantly more food”.
